Assay results: ChEMBL document CHEMBL1201862, “PubChem BioAssay data set” (2004)
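48-hour exposure; five concentrations; linearly interpolated endpoints. GI50 marks 50% less growth.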 Active and inactive are the calls of the source. Cut-off read from the data, not from the text of the source: active = GI50 up to about 1.1 µM and inactive = higher.

How the values were obtained:
Assay in all cases: inhibition of tumour cell growth, NCI panel, 48 h
OVCAR-8 = tested on: OVCAR-8
K562 = tested on: K562
NCI-H226 = tested on: NCI-H226
ACHN = tested on: ACHN
OVCAR-5 = tested on: OVCAR-5
SK-MEL-2 = tested on: SK-MEL-2
A549 = tested on: A549
SK-MEL-28 = tested on: SK-MEL-28
SNB-75 = tested on: SNB-75
MDA-MB-231 = tested on: MDA-MB-231
NCI/ADR-RES = tested on: NCI/ADR-RES
DU-145 = tested on: DU-145
M14 = tested on: M14
786-0 = tested on: 786-0
HOP-62 = tested on: HOP-62
OVCAR-3 = tested on: OVCAR-3
RPMI-8226 = tested on: RPMI-8226
BT-549 = tested on: BT-549
HOP-92 = tested on: HOP-92
OVCAR-4 = tested on: OVCAR-4

Measured: GI50

CC(C)(C)OC(=O)NC(Cc1ccccc1)OCc1ccccc1 (stereo not given)
inactive: OVCAR-8 20.1 µM | K562 20.6 µM | NCI-H226 18.7 µM | ACHN 19.4 µM | OVCAR-5 24 µM | SK-MEL-2 29.4 µM | A549 17.6 µM | SK-MEL-28 17.9 µM | SNB-75 12.2 µM | MDA-MB-231 15.3 µM | NCI/ADR-RES 26.7 µM | DU-145 20.1 µM | M14 17.9 µM | 786-0 17.2 µM | HOP-62 18.9 µM | OVCAR-3 23.2 µM | RPMI-8226 26 µM | BT-549 23.3 µM

CC1OC(OC2C(OC(=O)[C@@H]3CC(C)(C)C[C@H]4C5=CC[C@@H]6[C@@]7(C)C[C@H](O)[C@H](OC8OC(CO)C(O)C(O)C8O)[C@@](C)(CO)[C@@H]7[C@H](O)C[C@@]6(C)[C@]5(C)CC[C@@]34C)OCC(O)C2O)C(O)C(O)C1O (stereo not given in full)
inactive: OVCAR-8 > 7.5 µM | K562 > 7.5 µM | NCI-H226 > 7.5 µM | ACHN > 7.5 µM | OVCAR-5 > 7.5 µM | HOP-92 > 7.5 µM | SK-MEL-2 > 7.5 µM | SNB-75 > 7.5 µM | MDA-MB-231 > 7.5 µM | NCI/ADR-RES > 7.5 µM | DU-145 > 7.5 µM | M14 > 7.5 µM | 786-0 > 7.5 µM | HOP-62 > 7.5 µM | OVCAR-3 > 7.5 µM | OVCAR-4 > 7.5 µM | BT-549 > 7.5 µM

COc1ccccc1/C=C1\NC(=S)N(/C=C2\C(=O)Oc3ccccc3C2=O)C1=O
inactive: OVCAR-8 36.6 µM | NCI-H226 14.6 µM | ACHN 55.6 µM | OVCAR-5 > 100 µM | HOP-92 7.76 µM | SK-MEL-2 62.1 µM | A549 51.6 µM | SK-MEL-28 51.5 µM | SNB-75 30.1 µM | MDA-MB-231 40.7 µM | NCI/ADR-RES 24.6 µM | DU-145 21.1 µM | M14 64.1 µM | 786-0 52.5 µM | HOP-62 > 100 µM | OVCAR-3 32.1 µM | OVCAR-4 24.9 µM | BT-549 21.9 µM

CC(=O)SSC1(Cl)C(C)(C)C(Cl)(SSC(C)=O)C1(C)C (stereo not given)
inactive: OVCAR-8 39.4 µM | NCI-H226 > 100 µM | ACHN 63.4 µM | OVCAR-5 > 100 µM | HOP-92 > 100 µM | SK-MEL-2 > 100 µM | A549 73.6 µM | SK-MEL-28 > 100 µM | SNB-75 30.4 µM | MDA-MB-231 > 100 µM | NCI/ADR-RES 40.2 µM | DU-145 29.6 µM | M14 84.1 µM | 786-0 49.2 µM | HOP-62 44.3 µM | OVCAR-3 61.4 µM | OVCAR-4 48.1 µM | BT-549 > 100 µM

COc1ccc(C2c3c[nH]nc3CC3CCCCC32)cc1 (stereo not given)
inactive: OVCAR-8 17.3 µM | K562 22.2 µM | NCI-H226 17.4 µM | ACHN 19 µM | OVCAR-5 20.5 µM | SK-MEL-2 17.9 µM | A549 14.5 µM | SK-MEL-28 18.3 µM | SNB-75 13.1 µM | MDA-MB-231 14 µM | DU-145 13.4 µM | M14 17.6 µM | 786-0 18.6 µM | HOP-62 21.3 µM | OVCAR-3 15.5 µM | RPMI-8226 19.8 µM | OVCAR-4 16.7 µM | BT-549 16.6 µM

C[C@]12CCC3c4ccc(O)cc4CC[C@H]3C1CC(=O)N(N)C2=O (stereo not given in full)
inactive: OVCAR-8 > 100 µM | K562 > 100 µM | NCI-H226 > 100 µM | ACHN > 100 µM | OVCAR-5 > 100 µM | HOP-92 > 100 µM | A549 > 100 µM | SK-MEL-28 > 100 µM | SNB-75 > 100 µM | MDA-MB-231 > 100 µM | DU-145 > 100 µM | M14 > 100 µM | 786-0 > 100 µM | HOP-62 > 100 µM | OVCAR-3 > 100 µM | OVCAR-4 > 100 µM | BT-549 > 100 µM

O=[N+]([O-])c1ccc(NN/N=N/c2ccc(-c3nc4ccccc4s3)cc2)c([N+](=O)[O-])c1
inactive: OVCAR-8 24.3 µM | K562 22.7 µM | NCI-H226 29.5 µM | ACHN 22.2 µM | OVCAR-5 23.8 µM | HOP-92 21 µM | SK-MEL-2 21 µM | A549 27.7 µM | SK-MEL-28 33.7 µM | SNB-75 24.8 µM | MDA-MB-231 22.3 µM | NCI/ADR-RES 25.1 µM | DU-145 30.7 µM | M14 18.2 µM | 786-0 20.8 µM | HOP-62 21.9 µM | OVCAR-3 19.8 µM | OVCAR-4 24.6 µM | BT-549 23.8 µM
